Measured values reported in ChEMBL document CHEMBL1157385, “(Iso)-quinoline alkaloids from fungal fruiting bodies of Cortinarius subtortus” (J Nat Prod, 2008).

Tests used:
[1] = test system: Radical scavenging activity; experiment: Antioxidant activity assessed as DPPH free radical scavenging activity at 1 mM; assay type: functional
Colletotrichum coccodes = experiment: Growth inhibition of Colletotrichum coccodes (Wallr.) S. Hughes at 100 uM after 6 days; assay type: functional, organism-based; details: 144 h

| SMILES | Activity [1] | other results |
| --- | --- | --- |
| Nc1ccnc2c(C(=O)O)cc(O)cc12 | 12% |  |
| Oc1cccc2cccnc12 [QUINOSOL] |  | EC50 (Colletotrichum coccodes): 0.19 µM |
| O=C(O)c1cc(O)cc2cccnc12 | 15% | inhibition at 100 µM (Colletotrichum coccodes): 71% |
| O=C1O[C@H]([C@@H](O)CO)C(O)=C1O [ASCORBIC ACID] |  | EC50 [1]: 45 µM |
| O=C(O)c1cc(O)cc2c(=O)[nH]ccc12 | 21% |  |
